The values that follow come from paper PMC3760497 (Nature, 2011).

The assay has as its target Get3 (Saccharomyces cerevisiae, UniProt Q12154, D57N). Nature of the assay: mant-ATP chase titration, fluorescence. In kind it is binding. The following applies: 1 uM Get3(D57N), 1 uM mant-ATP; 50 mM HEPES pH 7.5, 100 mM NaCl, 5 mM MgCl2; competitive with mant-ATP.

Chain of Get3 (Q12154 whole entry D57N): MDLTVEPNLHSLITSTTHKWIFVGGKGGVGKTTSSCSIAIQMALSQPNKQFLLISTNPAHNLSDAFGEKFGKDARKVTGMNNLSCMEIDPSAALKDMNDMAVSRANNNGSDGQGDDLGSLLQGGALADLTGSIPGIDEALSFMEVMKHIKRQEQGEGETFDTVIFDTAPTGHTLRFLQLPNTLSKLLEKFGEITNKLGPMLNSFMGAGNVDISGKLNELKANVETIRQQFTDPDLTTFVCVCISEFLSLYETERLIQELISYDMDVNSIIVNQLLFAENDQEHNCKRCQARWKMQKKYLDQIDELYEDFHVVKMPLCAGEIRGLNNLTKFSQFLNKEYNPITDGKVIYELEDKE

As to `Nc1ncnc2c1ncn2[C@@H]1O[C@H](COP(=O)(O)OP(=O)(O)O)[C@@H](O)[C@H]1O` [ADP], the dissociation constant entry is on record as “ADP (which binds weakly to substrate-free Get3; Sup. Fig. S18)”.
